# Results as given in patent publication US8710231B2, “Inhibitor of casein kinase 1delta and casein kinase 1E” (Pharmadesign, Inc., priority 2010, dated 2014).
# Tests used:
# [1] = target: T1, human recombinant casein kinase 1δ (Homo sapiens, UniProt P48730); test: Casein kinase 1δ inhibition, Z'-LYTE Ser/Thr 11 Peptide assay; format: biochemical; settings: 0.3 μg/ml compound; for inhibition at 0.3 µg/mL: 20 μM ATP, 3.0 or 1.0 μg/ml enzyme, formula (2) high-purity from Scheme 2, read-out: Casein kinase 1δ inhibition percentage
# T1 construct: purchased INVITROGEN PV3665
# Experimental: (§1) The activity of the present compound to inhibit casein kinase 1δ and casein kinase 1ε was measured using human recombinant casein kinase 1δ (INVITROGEN; Cat No. PV3665) or human recombinant casein kinase 1ε (INVITROGEN; Cat No. PV3500) as an enzyme source, and also using Z′-LYTE Ser/Thr 11 Peptide (INVITROGEN; Cat No. PV3671) as a phosphorylation substrate. The composition (final concentration) applied during each inhibitory activity measurement assay is as follows.
# Assay for Casein Kinase 1δ
# 3.0 μg/ml or 1.0 μg/ml casein kinase 1δ, 0.3 μg/ml the present compound, 1.0 μM Peptide, 20 μM ATP, 50 mM HEPES (pH 7.4), 10 mM MgCl2, 0.01% Brij-35, and 0.5% DMSO
# (§2) The present compound was previously allowed to react with the enzyme at room temperature, for 15 minutes. Two hours later, the remaining phosphorylation activity was measured using Z′-LYTE Kinase Assay Kit-Ser/Thr 11 Peptide (INVITROGEN; Cat No. PV3670).
# (§3) The inhibition percentage of the present compound against the phosphotylation activity of each of casein kinase 1δ and casein kinase 1ε to which the present compound had not been added, was calculated.
# [2] = target: T2, human recombinant casein kinase 1ε (Homo sapiens, UniProt P49674); test: Casein kinase 1ε inhibition, Z'-LYTE Ser/Thr 11 Peptide assay; format: biochemical; settings: 0.3 μg/ml compound; for inhibition at 0.3 µg/mL: 20 μM ATP, 0.5 μg/ml enzyme, formula (2) high-purity from Scheme 2, read-out: Casein kinase1ε inhibition percentage
# T2 construct: purchased INVITROGEN PV3500
# Experimental: as §1
# Assay for Casein Kinase 1ε
# 0.5 μg/ml casein kinase 1ε, 0.3 μg/ml the present compound, 1.0 μM Peptide, 20 μM ATP, 50 mM HEPES (pH 7.4), 10 mM MgCl2, 0.01% Brij-35, and 0.5% DMSO
# as §2, §3
# [3] = Solubility of each compound in a DMSO solution; format: physicochemical
# Source text: In terms of the solubility of each compound in a DMSO solution, a comparison was made among the compound represented by the Formula (2), the compounds represented by the formulae (11) and (14), and a compound in which a halogen atom or the like has not been introduced into the thiophene ring of the compound of the formula (2) (4-((6-methoxy-3-pyridinyl)methylene)-2-(2-thienyl)-5(4H)-oxazolone). The compound represented by the formula (2) and the compounds represented by the formulae (11) and (14) were easily dissolved in final concentrations of 35 mM, 10 mM and 20 mM, respectively, in the DMSO solution. On the other hand, the compound in which a halogen atom or the like has not been introduced into the thiophene ring of the compound of the formula (2) was dissolved in a final concentration of 10 mM in the DMSO solution by being intensively stirred.
# [4] = system: various types of kinases (MAPKAPK2, AurA, PKCζ, RSK1, PRAK, Erk1, PKD2, CHK1, ABL, FYN, LYN, CHK2, MET, LCK, SRC, GSK3β, Erk2, PKA, AKT2, INSR, p38α, AKT1 …); test: Inhibitory specificity to various types of kinases, Profiler Pro kit; format: biochemical; settings: final concentration of 10 μM, 1 μM or 0.1 μM; reacted 15 minutes
# Experimental: The inhibitory specificity of the casein kinase 1δ to and casein kinase 1ε inhibiting compounds to various types of kinases can be examined using Profiler Pro kit (manufactured by Caliper Life Sciences) in accordance with the method described in an instruction manual included therewith. The compounds represented by the formulae (2), (11) and (14) were each allowed to react with various types of kinases for 15 minutes, resulting in the final concentration of 10 μM, 1 μM or 0.1 μM. After completion of the reaction, enzyme activity was examined.
# [5] = target: Dual specificity tyrosine-phosphorylation-regulated kinase 1A (DYRK1A) (Homo sapiens, UniProt Q13627); test: DYRK1A inhibition, Profiler Pro kit method; format: biochemical; settings: compound 1 μM; read-out: DYRK1A enzyme activity inhibition percentage
# Source text: As with casein kinase 1δ, this DYRK1A has been known as a candidate kinase for phosphorylating tau proteins, and also as a kinase for controlling circadian rhythm.
# rats [6] = test: Rat circadian rhythm disorder model (momentum and non-REM sleep under LD conditions); format: in vivo; settings: for momentum / non-REM sleep amount: 60 mg/kg intraperitoneal immediately before dark period, vs untreated rats
# Experimental: Specifically, rats were acclimatized for one or more weeks under light/dark (LD) conditions consisting of a light period for 12 hours and a dark period for 12 hours. Immediately before the beginning of the dark period, the compound represented by the formula (11) was mixed with a solubilizing agent, and the mixture was intraperitoneally administered to each rat at a dose of 60 mg/kg. […] On the other hand, with regard to a compound in which as halogen group or the like had not been introduced into the thiophene ring of the compound represented by the formula (2) ((4-((6-methoxy-3-pyridinyl)methylene)-2-(2-thienyl)-5(4H)-oxazolone)), the same test as described above was carried out.
# [7] = target: T3, human recombinant casein kinase 1δ (substrate human recombinant tau) (Homo sapiens, UniProt P48730); test: Casein kinase 1δ inhibition with tau as substrate (Phos-tag Western blotting); format: biochemical; settings: compound 25 μM to 1 μM, 200 μM ATP, vs reaction solution without compound
# T3 construct: purchased Carna Biosciences 03-103
# Experimental: The activity of the present compound to inhibit casein kinase 1δ having tau as a substrate can be examined using human recombinant casein kinase 1δ (Carna Biosciences; Cat No. 03-103) as an enzyme source and also using human recombinant tau (Sigma-Aldrich; Cat No. T0576) as a phosphorylation substrate. The composition (final concentration) applied during the inhibitory activity measurement assay is as follows.
# 25 μg/ml casein kinase 1δ, 10 μg/ml tau, the present compound (25 μM to 1 μM), 200 μM ATP, 50 mM HEPES (pH7.4), 10 mM MgCl2, 0.01% Brij-35, 200 μM Na3VO4, and 0.25% DMSO
# The present compound has previously been allowed to react with the enzyme at room temperature for 15 minutes, and tau is then added to the reaction product. Thereafter, a phosphorylation reaction is carried out for 2 hours. After completion of the phosphorylation reaction, the reaction solution is subjected to Western blotting, so that the phosphorylation of the human recombinant tau transcribed on a PVDF membrane is detected using Phos-tag (NARD Institute, Ltd.; Cat No. BTL-104) according to a chemiluminescence method (ECL Plus; GE Healthcare; Cat No. RPN2132). The PVDF membrane after detection of the phosphorylation reaction is deprobed in accordance with the protocols of the Phos-tag, and thereafter, a total tau protein content can be detected by an antibody reaction. […]
# rats [8] = settings: subcutaneous administration; cited from earlier work
# p38α = p38α (Homo sapiens, UniProt Q16539); settings: cited from earlier work
# [9] = system: N2A cells (N2A-APP695 cells); settings: N2A-APP695 cells excessively expressing constitutively active casein kinase 1ε; cited from earlier work
# [10] = system: human pancreatic cancer cell line; settings: added in vitro; cited from earlier work
# [11] = system: pancreatic cancer cell line transplanted into the subcutis of a mouse; settings: subcutaneous transplant; cited from earlier work
# [12] = low-purity compound obtained by Scheme 1
# T1 sequence (P48730 whole entry): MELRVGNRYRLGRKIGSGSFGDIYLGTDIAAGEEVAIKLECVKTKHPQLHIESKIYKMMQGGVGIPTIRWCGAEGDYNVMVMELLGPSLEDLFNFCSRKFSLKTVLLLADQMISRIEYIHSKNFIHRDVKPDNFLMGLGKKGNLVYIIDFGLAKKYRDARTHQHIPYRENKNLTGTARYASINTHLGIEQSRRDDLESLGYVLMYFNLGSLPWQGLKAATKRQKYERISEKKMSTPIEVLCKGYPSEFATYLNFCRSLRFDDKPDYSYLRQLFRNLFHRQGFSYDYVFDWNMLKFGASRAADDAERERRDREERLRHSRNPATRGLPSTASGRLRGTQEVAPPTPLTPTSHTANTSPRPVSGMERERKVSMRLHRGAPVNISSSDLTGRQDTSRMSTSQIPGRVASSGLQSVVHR
# T2 sequence (P49674 whole entry): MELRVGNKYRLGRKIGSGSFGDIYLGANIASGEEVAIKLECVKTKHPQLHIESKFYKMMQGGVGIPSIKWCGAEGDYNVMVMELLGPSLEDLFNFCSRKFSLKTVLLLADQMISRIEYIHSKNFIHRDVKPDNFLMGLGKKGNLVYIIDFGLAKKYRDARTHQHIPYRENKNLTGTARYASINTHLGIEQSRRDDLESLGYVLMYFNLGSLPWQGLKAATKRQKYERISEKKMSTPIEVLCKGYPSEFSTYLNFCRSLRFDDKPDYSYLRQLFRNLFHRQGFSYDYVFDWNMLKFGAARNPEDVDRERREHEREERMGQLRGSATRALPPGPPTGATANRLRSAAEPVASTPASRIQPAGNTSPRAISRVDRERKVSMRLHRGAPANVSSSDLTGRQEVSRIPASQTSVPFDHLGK
# T3 sequence (P48730 whole entry): as the sequence (P48730 whole entry) above
# Chain of p38α (Q16539 whole entry): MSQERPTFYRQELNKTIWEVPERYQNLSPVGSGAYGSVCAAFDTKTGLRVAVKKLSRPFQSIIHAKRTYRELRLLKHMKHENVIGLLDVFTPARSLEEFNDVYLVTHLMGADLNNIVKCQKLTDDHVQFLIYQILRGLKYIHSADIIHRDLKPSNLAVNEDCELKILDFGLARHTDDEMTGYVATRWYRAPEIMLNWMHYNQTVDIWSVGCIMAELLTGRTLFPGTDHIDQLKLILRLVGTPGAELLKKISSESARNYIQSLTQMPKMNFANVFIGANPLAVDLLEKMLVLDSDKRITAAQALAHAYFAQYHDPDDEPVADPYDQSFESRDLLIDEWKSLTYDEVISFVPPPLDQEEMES
inhibition at 0.3 µg/mL [1],inhibition at 0.3 µg/mL [2],final concentration dissolved in the DMSO solution ([3]; easily dissolved),inhibition at 1 µM [5],inhibition of phosphorylation of tau by casein kinase 1δ (phosphorylation rate of tau) [7],SMILES,inhibitory activity against various types of kinases causing concerns about side effects [4],momentum (rats [6]),non-REM sleep amount (rats [6]),further results
77.9%,94.8%,10 mM,78%,significant inhibition,"COc1ccc(/C=C2\N=C(c3ccc(Cl)s3)OC2=O)cn1 [Formula (11), 4-((6-Methoxy-3-pyridinyl)methylene)-2-(5-chloro-2-thienyl)-5(4H)-oxazolone]",did not have significant inhibitory activity,statistically significant reduction,increase,medicinal effect compared with the compound without halogen on the thiophene ring (rats [6]; same test): significantly higher
–,–,–,–,–,"Nc1nccc(-c2c(-c3ccc(F)cc3)ncn2C2CCCCC2)n1 [PF-670462, 4-[3-cyclohexyl-5-(4-fluoro-phenyl)-3H-imidazol-4-yl]-pyrimidin-2-ylamine]",–,–,–,phase of circadian rhythm (rats [8]): significantly delayed; inhibitory action against p38α (p38α): exhibit inhibitory action
–,–,–,–,–,"COc1ccc(C=C2N=C(c3cccs3)OC2=O)cn1 [4-((6-methoxy-3-pyridinyl)methylene)-2-(2-thienyl)-5(4H)-oxazolone, reference compound]",–,significant reduction,increase,final concentration dissolved in the DMSO solution ([3]; dissolved by being intensively stirred): 10 mM
77.8%,95%,20 mM,85%,–,COc1ccc(/C=C2\N=C(c3ccc(Br)s3)OC2=O)cn1 [Formula (14)],did not have significant inhibitory activity,–,–,–
–,–,–,–,–,COc1cc(OC)c(C=C2C(O)=Nc3ccccc32)c(OC)c1 [IC261],–,–,–,amounts of Aβ40 and Aβ42 [9]: decreased; cell growth [10]: suppression of the cell growth; growth of tumor cells [11]: significant effect of suppressing the growth of tumor cells
83%,97.7%,35 mM,65%,significant inhibition,"COc1ccc(/C=C2\N=C(c3ccc(F)s3)OC2=O)cn1 [Formula (2), 4-((6-Methoxy-3-pyridinyl)methylene)-2-(5-fluoro-2-thienyl)-5(4H)-oxazolone]",did not have significant inhibitory activity,–,–,"inhibitory activity against casein kinase 1δ [1, 12]: significant inhibitory activity; inhibitory activity against casein kinase 1ε [2, 12]: significant inhibitory activity"
